From article PMC3933693, “Novel Inhibitors of Mitochondrial sn-Glycerol 3-phosphate Dehydrogenase” (PLoS ONE, 2014)
Where two headings read alike, the source gives them in different places.

Tests used:
[1] = test system: ubiquinone-binding site of complex I (site IQ); test: Site-specific H2O2 production from site IQ in skeletal muscle mitochondria; type: biochemical, rat;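 also: H2O2 from superoxide detected by Amplex UltraRed fluorescence with added superoxide dismutase and horseradish peroxidase, endpoint read 30–40 min after substrate addition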
mGPDH = target: T1, mGPDH (Rattus norvegicus, UniProt P35571); test: Superoxide/H2O2 production by mGPDH in isolated skeletal muscle mitochondria (Amplex UltraRed); type: biochemical
T1 construct: Activity of mGPDH in frozen-thawed skeletal muscle mitochondria was measured; from tissue; host or cells: skeletal muscle mitochondria
T1 sequence (P35571 43-727): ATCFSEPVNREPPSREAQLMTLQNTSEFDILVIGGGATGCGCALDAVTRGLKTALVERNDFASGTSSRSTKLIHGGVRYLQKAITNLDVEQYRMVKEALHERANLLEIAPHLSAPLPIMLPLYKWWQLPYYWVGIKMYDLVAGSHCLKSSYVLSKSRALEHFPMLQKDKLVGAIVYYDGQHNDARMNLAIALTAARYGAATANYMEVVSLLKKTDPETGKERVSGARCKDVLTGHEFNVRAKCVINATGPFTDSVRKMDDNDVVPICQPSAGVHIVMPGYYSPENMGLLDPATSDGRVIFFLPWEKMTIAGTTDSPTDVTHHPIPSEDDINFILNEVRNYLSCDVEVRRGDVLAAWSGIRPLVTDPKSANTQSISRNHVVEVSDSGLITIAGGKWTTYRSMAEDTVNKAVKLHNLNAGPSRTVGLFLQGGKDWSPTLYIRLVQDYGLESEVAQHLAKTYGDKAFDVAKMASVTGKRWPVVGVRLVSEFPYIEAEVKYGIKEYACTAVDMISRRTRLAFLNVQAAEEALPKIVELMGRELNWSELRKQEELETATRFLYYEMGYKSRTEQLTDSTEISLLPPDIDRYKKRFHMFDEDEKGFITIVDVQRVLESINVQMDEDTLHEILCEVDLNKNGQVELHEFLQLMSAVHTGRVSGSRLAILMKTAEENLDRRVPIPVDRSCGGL

[2] = test system: skeletal muscle mitochondria; test: Mitochondrial membrane potential (ΔΨm, TMRM) powered by glycerol phosphate; type: biochemical, rat
STHdhQ7 cells = test: Live cell imaging of iGP-1 fluorescence (ability to cross cellular membranes); type: cell-based; conditions: 100 µM; intrinsic fluorescence in live cells
Method: The ability of iGP-1 to cross cellular membranes was evaluated in STHdhQ7 cells cultured at 33°C as described. Cells were seeded on collagen-coated, Lab-Tek chambered coverglass (Nunc) 48 h before use. Prior to imaging, cells were cultured for 45 min with 65 nM LysoTracker Red ±250 nM bafilomycin A1. Medium was then replaced with imaging buffer (120 mM NaCl, 3.5 mM KCl, 0.4 mM KH2PO4, 20 mM TES, 5 mM NaHCO3, 1.2 mM Na2SO4, 1.5 mM CaCl2, 0.5 mM MgCl2, 2 mM Glucose, and 0.2% BSA, pH 7.4) containing DMSO, 250 nM bafilomycin A1 or 100 µM iGP-1. Cells were imaged on a Nikon Eclipse Ti-PFS inverted microscope equipped with a Cascade 512B camera (Photometrics, Tucson, AZ), a Plan Fluor 100X/1.3 oil objective, an LB-LS17 Xe-arc light source (attenuated), 10–3 excitation and emission filter wheels (Sutter Instruments, Novato, CA), and an MS-2000 linear encoded motorized stage (ASI, Eugene, OR). The filter sets, given as excitation, dichroic mirror, emission in nm/bandwidth, were, for iGP-1 (1 s exposure), 340/26, 409, 460/80 and for LysoTracker Red (100 ms exposure), 543/22, 562, 588/21 (all from Semrock, Rochester, NY). Image acquisition was controlled by NIS Elements 4.0 (Nikon, Melville, NY). Images of cell-free wells containing buffer with DMSO or iGP-1 were used for background subtraction in Image Analyst MKII (Novato, CA).

cortical synaptosomes = test: Synaptosomal respiration (Seahorse XF24); type: cell-based, mouse; conditions: 100 µM iGP-1, 0.5 mM aminooxyacetate
Method: Synaptosomal respiration was tested in the Seahorse XF24 using published protocols, [41]. Synaptosomes (20 or 25 µg protein) were attached to polyethyleneimine and Geltrex-coated Seahorse plates by centrifugation in ionic medium, [41] containing 10 mM glucose. Attachment buffer was carefully replaced with ionic buffer containing DMSO, 100 µM iGP-1, 0.5 mM aminooxyacetate, or iGP-1 with aminooxyacetate, and either 10 mM pyruvate or 15 mM glucose. Plates were equilibrated for 20 min at 37°C then loaded into the instrument followed by measurement of basal respiration and injection of 5 µM FCCP (to induce maximal, uncoupled respiration) with 4 µg ⋅ mL^−1 oligomycin (to prevent compensatory reversal of ATP synthase). In some experiments, 10 mM oxamate was added with the FCCP/oligomycin to minimize regeneration of cytosolic NAD^+ by lactate dehydrogenase. Inhibition of the malate-aspartate shuttle was defined as the difference between maximal rates ± aminooxyacetate, expressed as % of control. Inhibition of the glycerol phosphate shuttle was the difference between maximal rates with aminooxyacetate ± iGP-1, as % of control.

IC50 (mGPDH; Fig. 4 structure/activity microplate assay, 0.08–80 µM, estimated, means of two replicates, read-out: mGPDH H2O2 production IC50): 8 µM
IC50 (mGPDH; Fig. 9B, read-out: mGPDH H2O2 Production IC50): 13.6 ± 1.3 µM
mGPDH (% change from DMSO) (mGPDH; primary screen, ∼2.5 µM, average of duplicates, 16.7 mM glycerol phosphate, no added calcium): -21.6%
inhibition at 80 µM (mGPDH; read-out: mGPDH H2O2 production (% change at 80 μM)): 55%
IC50 (mGPDH; titration up to 80 µM (Fig. 6B, Fig. 7B), read-out: half-maximal effect on H2O2 production by mGPDH): ~8 µM
cell permeability (STHdhQ7 cells): readily crosses cellular membranes
Structure (SMILES): O=C(O)CCC(=O)Nc1ccc(-c2nc3ccccc3[nH]2)cc1 [iGP-1]
IQ H2O2 production with 5 mM Suc (% change at 80 μM) ([1]; 80 μM, 5 mM succinate): -9%
concentration above which H2O2 production by site IQ starts to be inhibited ([1]; Fig. 6B): above 10 µM
IQ (% change from DMSO) ([1]; primary screen, ∼2.5 µM, average of duplicates, 5 mM succinate): 1.0%
ΔΨm with GP + Nig (% change at 80 μM) ([2]; 80 μM, 16.7 mM glycerol phosphate, 4 µM rotenone, nigericin): -20%
effect on ΔΨm powered by glycerol phosphate ([2]; 8, 25, and 80 µM): significantly decreased
effect on basal or maximal respiration with pyruvate (cortical synaptosomes; 10 mM pyruvate): no effect
effect on basal and maximal respiration with glucose (cortical synaptosomes; 15 mM glucose, no oxamate): no effect
